Paper PMC5719408, “Multivalent cross-linking of actin filaments and microtubules through the microtubule-associated protein Tau” (Nature Communications, 2017)
Entries after “also recorded” stand apart in the source; their conditions may differ.

Assays:
F-actin [1] = assay: 2D 1H-15N HSQC NMR signal attenuation of Tau by F-actin; type: binding, human; conditions: Tau/F-actin molar ratio 1:1.5; compared with non-phosphorylated Tau
Source text: In order to identify residues in Tau that bind to F-actin, we used NMR spectroscopy. […] According to the resonance assignment of Tau[27], cross-peaks from residues such as S262, N265, and T319 were strongly attenuated. Other residues including T175 and T217 were less affected, and S46 and S64 were not perturbed. Figure 1f highlights the sequence specific intensity ratio of all non-overlapping cross-peaks of Tau in the presence and absence of F-actin. […] In contrast, residues, which are bound to F-actin, should have low (I bound/I free) values, because their resonances would—due to the high molecular weight of the complex—be attenuated. […] Consistent with this hypothesis, the cross-peaks of these residues were attenuated by F-actin also at higher ionic strength (Supplementary Fig. 3).
The sample was then dialyzed against General Actin Buffer (GAB; 5 mM TrisHCl pH 8.0, 0.2 mM CaCl2, 0.2 mM ATP, 0.5 mM DTT) or NMR buffer (50 mM NaH2PO4/Na2HPO4 pH 6.8, 10 mM NaCl, 1 mM DTT, 10% (v/v) D2O) to be used for electron microscopy or NMR experiments, respectively. In case of actin, lyophilized actin was reconstituted to 10 mg ml^−1 by adding 100 μl of distilled water to be in the following buffer: GAB with 5% (w/v) sucrose and 1% (w/v) dextran. […]

F-actin [2] = assay: Protein co-sedimentation / actin bundling (differential centrifugation, SDS gel); type: biochemical, human; conditions: co-sedimentation; F-actin with Tau (1:1) or Tau peptides (1:10; Tau(254–268) 1:30), room temperature 30 min
Method: The ability of Tau to bundle F-actin was studied using electron microscopy (EM). […] Next, Tau/F-actin co-sedimentation was performed. The same sample, which was used for EM, was exposed to two sequential steps of centrifugation, in which single-actin filaments and actin bundles were collected separately. Subsequently, aliquots from supernatant (SN), filament (PF), and bundle (PB) fractions were loaded in a 4–20% gradient gel (Fig. 1c).
(§1) The sample was then dialyzed against General Actin Buffer (GAB; 5 mM TrisHCl pH 8.0, 0.2 mM CaCl2, 0.2 mM ATP, 0.5 mM DTT) or NMR buffer (50 mM NaH2PO4/Na2HPO4 pH 6.8, 10 mM NaCl, 1 mM DTT, 10% (v/v) D2O) to be used for electron microscopy or NMR experiments, respectively. In case of actin, lyophilized actin was reconstituted to 10 mg ml^−1 by adding 100 μl of distilled water to be in the following buffer: GAB with 5% (w/v) sucrose and 1% (w/v) dextran. Subsequently, the sample was spun at 18,400 × g for 15 min, the supernatant was kept, and actin was polymerized by incubating 0.4 mg ml^−1 G-actin in GAB and supplemented with polymerization buffer (1/10th the volume; 100 mM Tris HCl pH 7.5, 20 mM MgCl2, 500 mM KCl, 10 mM ATP) for 1 h at room temperature. Afterwards, the sample was centrifuged at 100,000 × g during 1 h at 4 °C. Filaments were collected at the bottom of the ultracentrifuge tube. The pellet was then resuspended in GAB or NMR Buffer as required.
Mixtures of F-actin with Tau (1:1) or Tau peptides (1:10 molar ratio) were incubated at room temperature for 30 min. In case of the shorter peptide Tau(254–268), a 1:30 ratio was used. Centrifugation was performed in two steps. First, a spin rate of 5000 × g was used during 15 min to collect bundles of F-actin (PB) at the bottom of the tube. Secondly, the remaining sample was centrifuged at 100,000 × g during 1 h collecting actin filaments (PF). The final supernatant (SN) was also kept for later usage. Pellets were resuspended in 80 μl of GAB. A volume of 25 μl of sample were taken for EM while the remaining 55 μl were loaded in a 4–20% gradient SDS gel, which was colored with […] and denatured with SDS and heat.

F-actin [3] = assay: Saturation transfer difference (STD) NMR with F-actin; type: binding, human; conditions: compared with wild-type Tau(254–290)
Method: We therefore prepared a mutant version of Tau(254–290), in which L266 was replaced by a glutamate, i.e., Tau(254–290)-L266E. We then used saturation transfer difference (STD)[49] experiments to probe the influence of the mutation on binding of Tau(254–290) to F-actin.
as §1

F-actin [4] = assay: Transfer NOE (2D NOESY) of Tau peptides with F-actin; type: binding, human; conditions: 27 μM F-actin, 800 μM peptide, NMR buffer pH 6.8 with 0.2 mM ATP and 0.2 mM CaCl2, 278 K
Source text: Instead, short hydrophobic Tau segments, which are separated from each other by flexible residues, bind dynamically to actin’s hydrophobic pocket (Fig. 2). […] NMR Nuclear overhauser effect (NOE) measurements that are sensitive for three-dimensional structure were subsequently performed. […] This approach is called transfer NOE and has been widely used to determine the structure of small ligands in complex with high molecular weight binding partners.
Two-dimensional NOESY experiments with five different mixing times ranging from 50 up to 250 ms were recorded for Tau(254–290) in the presence of F-actin. […] The NOE peaks, which were observed only in the presence of F-actin, provide experimental restraints for the structure of Tau(254–290) in complex with F-actin.
as §1
NMR spectra were acquired on Bruker Avance800 and 900 MHz NMR spectrometers at 278 K to reduce solvent exchange. 2D ^1H-^15N HSQC spectra consisted of 64 scans, spectral windows of 12 ppm in the proton and 25 ppm in the nitrogen dimension. 2D NOESY experiments were acquired using 88 scans, 12 ppm spectral width and a time domain of 512 and 2048 points in the first and second dimension, respectively. To generate buildup curves, mixing times of 50, 80, 100, 150, and 250 ms were used.
For NOESY experiments, 27 μM of F-actin were mixed with 800 μM of Tau peptide in NMR buffer supplemented with 0.2 mM ATP and 0.2 mM CaCl2. A reference experiment was performed in similar conditions only with 800 μM peptide. For resonance assignment, a 2D TOCSY experiment with a mixing time of 75 ms was performed. All data were processed using NMRPipe[76] and analyzed using Sparky[77].

NBD-labeled F-actin = molecular target: T1, NBD-labeled F-actin (Oryctolagus cuniculus, UniProt P68135); assay: F-actin binding assay (NBD fluorescence change); conditions: NBD-labeled F-actin, GAB, 25 °C; values only in Supplementary Fig. 1b bar diagram
T1 construct: NBD-conjugated actin from α-skeletal muscle was bought from Hypermol; purchased Hypermol (Bielefeld, Germany); host or cells: α-skeletal muscle (tissue-derived (so in the source))
Method: In order to gain insight into the affinity of the Tau/F-actin-interaction, the change in fluorescence of 7-chloro-4-nitrobenz-2-oxa-1,3-diazole (NBD)-labeled F-actin upon addition of Tau was followed[31]. 0.2 μM of NBD-labeled and phalloidin-stabilized F-actin were mixed with increasing amounts of Tau (Fig. 1d and Supplementary Fig. 1).
NBD-conjugated actin from α-skeletal muscle was bought from Hypermol (Bielefeld, Germany). In this experiment, 7-chloro-4-nitrobenz-2-oxa-1,3-diazole (NBD)-labeled G-actin was polymerized starting from 0.4 mg ml^−1 of the conjugated actin supplemented with 10-fold excess of phalloidin (catalog no. P2141, Sigma-Aldrich) to provide stable filaments. […] The change of fluorescence intensity from NBD was followed in a Cary Eclipse fluorescence spectrophotometer (Agilent Technologies, Inc.). […] As reported by Hertzog, M. et al.[31] the normalized decrease in fluorescence (equation 1) was analyzed and fitted by using equation 2.1 E=F-F0/Fmax-F0 2 E=1/2C+1/2Z-1/2C+Z^2-4Z with Z=[partner]/[F-actin]andC=1+Kd/[F-actin]
Affinity of Tau and Tau fragments for binding to NBD-labeled F-actin. (a) Change of NBD fluorescence upon addition of increasing concentrations of Tau and Tau fragments. […]
(b) Bar diagram showing Kd values, which were determined based on the quenching effect of Tau/Tau fragments on the fluorescent properties of NBD-labeled F-actin. […]

Substance | F-actin-induced NMR signal attenuation near phosphorylation sites / F-actin binding in words (F-actin [1]) | bundling of F-actin (F-actin [2]) | STD signal relative to wild-type peptide (F-actin [3]) | transfer NOE cross-peaks in presence of F-actin (F-actin [4]) | affinity for F-actin relative to parent (in words) (NBD-labeled F-actin)
MARK2-phosphorylated Tau: full-length Tau phosphorylated by MARK2 at S262, S293, S305, S324, S356, and S416 | little attenuation of NMR signals in vicinity of the phosphorylation sites; also recorded: attenuates its binding to F-actin | failed in bundling actin filaments | – | – | –
Tau(254–290)-L266E: mutant version of Tau(254–290), in which L266 was replaced by a glutamate (Ac-KNVKSKIGSTENEKHQPGGGKVQIINKKLDLSNVQSK-NH2) | – | less efficient in promoting F-actin bundling | decreased STD signal | no additional cross-peaks were observed | decrease in affinity
